Results reported in publication PMC4809600, “The Influence of Chronic Wound Extracts on Inflammatory Cytokine and Histatin Stability” (PLoS ONE, 2016).
Where two headings read alike, the source gives them in different places. Where no end group is shown, it is not given here.

Legend:
[1] = Dose response of Hst1 and PIC in the presence of CWE; assay type: in vitro ADME, human; settings: CWE 1 mg/ml, 37°C, CZE, 0 h = 100%; for Intact Hst1, CWE + PIC 1:140 96h / Intact Hst1, CWE + PIC 1:280 24h / Intact Hst1, CWE + PIC 1:280 96h: Hst1 2 mg/ml; for remaining at 24 h, 1 mg/ml / remaining at 96 h, 1 mg/ml: Hst1 1 mg/ml
Experimental: For the dose response of PIC and Hst1, three different concentrations of Hst1 were prepared (0.5 mg/ml, 1 mg/ml and 2 mg/ml) and two different concentrations of PIC were used. The final PIC concentration in the CWE (1 mg/ml) sample was 1:140 v/v (same as above) or 1:280 v/v (2x diluted). Mixtures were incubated at 37°C and samples were taken at 0, 24 and 96 h.
(§1) The samples were analyzed with a BioFocus 2000 capillary zone electrophoresis system (Bio-Rad Laboratories, Hercules, CA, USA) equipped with an uncoated fused-silica capillary of internal diameter 50 μm and a length of 24 cm. Samples were loaded by pressure injection (5 psi/sec). Separation was performed at 10 kV (cathode at the detector side) at 20°C using 0.1 M phosphate buffer (pH 2.5) as electrolyte and monitored continuously at 200 nm. Peaks were quantified with the BioFocus Integrator software. In order to quantify the percentage of intact peptides remaining after incubation with CWE, the ratios of histatins, rhIL-6 or rhCXCL8 to internal standard was set at 100% at 0h, and the ratios at the other incubation time points were related to this.

[2] = Stability in CWE with protease inhibitor cocktail (PIC), capillary zone electrophoresis; assay type: in vitro ADME, human; settings: 37°C, CZE, 0 h = 100%; for Percentage intact, CWE + PIC 2h / Percentage intact, CWE + PIC 4h / Percentage intact, CWE + PIC 8h / Percentage intact, CWE + PIC 16h / Percentage intact, CWE + PIC 24h / Percentage intact, CWE + PIC 48h / Percentage intact, CWE + PIC 72h / Percentage intact, CWE + PIC 96h: 1 mg/ml in PBS mixed 1:1 with CWE (1 mg/ml protein, pool of 5 donors) in PBS containing PIC (final 1:140 v/v), ratio to imidazole
From the text: Debridement tissue was obtained from chronic ulcers of 15 patients with therapy resistant (arterio-venous) leg ulcers, according to procedures described earlier. In brief, moist, easily removable debridement material, essentially blood free, was collected from the ulcer surface and divided equally into two different solutions: (i) PBS (B. Braun, Melsungen, Germany), (ii) PBS with protease inhibitor cocktail (PIC) (1:100; v/v) (Sigma-Aldrich, Steinheim, Germany). The mixtures were gently shaken for 1 h at 4°C to elute proteins and centrifuged; the supernatants were stored at -80°C. Total protein content of the supernatant was measured using the BioRad Protein Assay (BioRad Laboratories, Hercules, California, USA) essentially as described by the supplier. Samples were diluted to 1 mg/ml protein and extracts of five different donors were pooled; three different pools of five donors were used in all experiments. The samples are referred to as chronic wound extracts (CWE).
To determine the stability of the different peptides in CWE, histatins and cytokines were dissolved in PBS at 1 mg/ml. Histatins and cytokines were incubated in a 1:1 ratio with (i) PBS, (ii) CWE in PBS, or (iii) CWE in PBS containing PIC, in a total volume of 25 μl. Imidazole (Sigma-Aldrich) was added as an internal standard, with a final concentration of 100 μg/ml. The mixtures were incubated at 37°C, and samples were taken at 0, 24, 48, 72 and 96 h. For histatins containing mixtures, additional samples were taken after 2, 4, 8 and 16 h of incubation.
as §1

DSHEKRHHGYRRKFHEKHHSHREFPFYGDYGSNYLYDN [Hst1]
Intact Hst1, CWE + PIC 1:140 96h ([1]; PIC:CWE 1:140 v/v, experiment 2 of 3): 47.6383% | Intact Hst1, CWE + PIC 1:140 96h ([1]; PIC:CWE 1:140 v/v, experiment 3 of 3): 45.7764% | Intact Hst1, CWE + PIC 1:280 24h ([1]; PIC:CWE 1:280 v/v, 24 h, experiment 1 of 3): 61.8953% | Intact Hst1, CWE + PIC 1:280 24h ([1]; PIC:CWE 1:280 v/v, 24 h, experiment 2 of 3): 55.6946% | Intact Hst1, CWE + PIC 1:280 24h ([1]; PIC:CWE 1:280 v/v, 24 h, experiment 3 of 3): 47.0948% | Intact Hst1, CWE + PIC 1:280 96h ([1]; PIC:CWE 1:280 v/v, experiment 1 of 3): 42.3498% | Intact Hst1, CWE + PIC 1:280 96h ([1]; PIC:CWE 1:280 v/v, experiment 2 of 3): 34.4262% | Intact Hst1, CWE + PIC 1:280 96h ([1]; PIC:CWE 1:280 v/v, experiment 3 of 3): 43.3131% | remaining at 96 h, 0.5 mg/ml ([1]; human, chronic wound extracts (CWE), with protease inhibitor cocktail (PIC), PIC:CWE 1:140 v/v, Hst1 0.5 mg/ml, PIC:CWE 1:140 v/v, experiment 3 of 3, read-out: Intact Hst1, CWE + PIC 1:140 96h): 37.5% | remaining at 24 h, 1 mg/ml ([1]; human, chronic wound extracts (CWE), with protease inhibitor cocktail (PIC), PIC:CWE 1:140 v/v, PIC:CWE 1:140 v/v, 24 h, experiment 1 of 3, read-out: Intact Hst1, CWE + PIC 1:140 24h): 76.2% | remaining at 24 h, 1 mg/ml ([1]; human, chronic wound extracts (CWE), with protease inhibitor cocktail (PIC), PIC:CWE 1:140 v/v, PIC:CWE 1:140 v/v, 24 h, experiment 2 of 3, read-out: Intact Hst1, CWE + PIC 1:140 24h): 67% | remaining at 96 h, 1 mg/ml ([1]; human, chronic wound extracts (CWE), with protease inhibitor cocktail (PIC), PIC:CWE 1:140 v/v, PIC:CWE 1:140 v/v, experiment 1 of 3, read-out: Intact Hst1, CWE + PIC 1:140 96h): 53.2% | remaining at 96 h, 1 mg/ml ([1]; human, chronic wound extracts (CWE), with protease inhibitor cocktail (PIC), PIC:CWE 1:140 v/v, PIC:CWE 1:140 v/v, experiment 2 of 3, read-out: Intact Hst1, CWE + PIC 1:140 96h): 43.5% | remaining at 24 h, 0.5 mg/ml ([1]; human, chronic wound extracts (CWE), with protease inhibitor cocktail (PIC), PIC:CWE 1:280 v/v, Hst1 0.5 mg/ml, PIC:CWE 1:280 v/v, 24 h, experiment 3 of 3, read-out: Intact Hst1, CWE + PIC 1:280 24h): 34.4% | remaining at 96 h, 0.5 mg/ml ([1]; human, chronic wound extracts (CWE), with protease inhibitor cocktail (PIC), PIC:CWE 1:280 v/v, Hst1 0.5 mg/ml, PIC:CWE 1:280 v/v, experiment 3 of 3, read-out: Intact Hst1, CWE + PIC 1:280 96h): 20.3% | remaining at 24 h, 1 mg/ml ([1]; human, chronic wound extracts (CWE), with protease inhibitor cocktail (PIC), PIC:CWE 1:280 v/v, PIC:CWE 1:280 v/v, 24 h, experiment 1 of 3, read-out: Intact Hst1, CWE + PIC 1:280 24h): 60.2% | remaining at 24 h, 1 mg/ml ([1]; human, chronic wound extracts (CWE), with protease inhibitor cocktail (PIC), PIC:CWE 1:280 v/v, PIC:CWE 1:280 v/v, 24 h, experiment 2 of 3, read-out: Intact Hst1, CWE + PIC 1:280 24h): 51.5% | remaining at 96 h, 1 mg/ml ([1]; human, chronic wound extracts (CWE), with protease inhibitor cocktail (PIC), PIC:CWE 1:280 v/v, PIC:CWE 1:280 v/v, experiment 1 of 3, read-out: Intact Hst1, CWE + PIC 1:280 96h): 37% | remaining at 96 h, 1 mg/ml ([1]; human, chronic wound extracts (CWE), with protease inhibitor cocktail (PIC), PIC:CWE 1:280 v/v, PIC:CWE 1:280 v/v, experiment 2 of 3, read-out: Intact Hst1, CWE + PIC 1:280 96h): 41.5% | Percentage intact, CWE + PIC 2h ([2]; experiment 1 of 3): 91.8564% | Percentage intact, CWE + PIC 2h ([2]; experiment 2 of 3): 90.6434% | Percentage intact, CWE + PIC 2h ([2]; experiment 3 of 3): 99.1023% | Percentage intact, CWE + PIC 4h ([2]; experiment 1 of 3): 81.1086% | Percentage intact, CWE + PIC 4h ([2]; experiment 2 of 3): 81.649% | Percentage intact, CWE + PIC 4h ([2]; experiment 3 of 3): 84.0062% | Percentage intact, CWE + PIC 8h ([2]; experiment 1 of 3): 76.5843% | Percentage intact, CWE + PIC 8h ([2]; experiment 2 of 3): 75.4466% | Percentage intact, CWE + PIC 8h ([2]; experiment 3 of 3): 82.0587% | Percentage intact, CWE + PIC 16h ([2]; experiment 1 of 3): 72.2461% | Percentage intact, CWE + PIC 16h ([2]; experiment 2 of 3): 65.5164% | Percentage intact, CWE + PIC 16h ([2]; experiment 3 of 3): 70.9806% | Percentage intact, CWE + PIC 24h ([2]; 24 h, experiment 1 of 3): 78.4236% | Percentage intact, CWE + PIC 24h ([2]; 24 h, experiment 2 of 3): 69.711% | Percentage intact, CWE + PIC 24h ([2]; 24 h, experiment 3 of 3): 68.9989% | Percentage intact, CWE + PIC 48h ([2]; experiment 1 of 3): 73.7424% | Percentage intact, CWE + PIC 48h ([2]; experiment 2 of 3): 59.1893% | Percentage intact, CWE + PIC 48h ([2]; experiment 3 of 3): 54.0682% | Percentage intact, CWE + PIC 72h ([2]; experiment 1 of 3): 64.2173% | Percentage intact, CWE + PIC 72h ([2]; experiment 2 of 3): 41.8342% | Percentage intact, CWE + PIC 72h ([2]; experiment 3 of 3): 36.0529% | Percentage intact, CWE + PIC 96h ([2]; experiment 1 of 3): 48.0273% | Percentage intact, CWE + PIC 96h ([2]; experiment 2 of 3): 30% | Percentage intact, CWE + PIC 96h ([2]; experiment 3 of 3): 21.2156% | remaining at 24 h, 0.5 mg/ml ([2]; human, with protease inhibitor cocktail (PIC), CWE with protease inhibitor cocktail (final 1:140 v/v), 24 h, mean of 3 independent experiments, read-out: Remaining fraction of intact peptide after 24 h in CWE + PIC): 72%
